This passage reports MIC results from patent publication US5254533A, “Elfamycin” (Rhone-Poulenc Rorer S.A., priority 1990, dated 1993).

Each structure is given as a SMILES string.

Holding throughout (test): MIC, antibacterial activity (agar dilution)
What all share (format): cell-based
(In general: In agar dilution the substance is mixed into plates at graded concentrations.)

In one test the test system is Staphylococcus faecalis. The note with it: Mueller Hinton Agar, about 18 h at about 37° C.
The subject of test [1] is Proteus mirabilis Villette. The note with it: Mueller Hinton Agar, about 18 h at about 37° C.
Test [2] relates to Staphylococcus aureus Weichbrodt. The conditions noted are these: Mueller Hinton Agar, about 18 h at about 37° C.
Another test deals with Streptococcus bovis 5. The note with it: Streptococcus equinus, Mueller Hinton Agar, about 18 h at about 37° C.
The test system of test [3] is Bacteroides fragilis ATCC 25285. The conditions noted are these: ATCC25285, anaerobic, Mueller Hinton Agar + 2% Fildes, about 48 h at about 37° C.
Test [4] deals with Bacteroides melaninogenicus ATCC 15930. The note with it: Prevotella intermedia, ATCC15930; anaerobic, Mueller Hinton Agar + 2% Fildes, about 48 h at about 37° C.
Test [5] relates to Enterobacter cloacae IP 085. The note with it: IP085, Mueller Hinton Agar, about 18 h at about 37° C.

What is called MIC is the lowest concentration that inhibits growth of the organism. In the case of `C/C=C\C=C\C1OC(O)(C(CC)C(=O)NC/C=C/C=C(\C)C(OC)C(C)C2CC(O)C(/C=C/C=C/C=C/C(=O)O)O2)C(O)C(O)C1(C)C` (stereo not shown) [formula (II)], the MIC with Staphylococcus faecalis was more than 300 µg/mL; in test [1] it was more than 300 µg/mL; in test [2], more than 300 µg/mL; in the test with Streptococcus bovis 5, 25 µg/mL; in test [3] it was more than 100 µg/mL; in test [4], more than 100 µg/mL. For the same molecule, the minimum inhibitory concentration (MIC) in test [5] is more than 300 µg/mL.
